Measurements from ChEMBL document CHEMBL3992556, “5-Ethynylarylnaphthalimides as antitumor agents: Synthesis and biological evaluation” (Bioorg Med Chem, 2017).
Calls of active or inactive are those of the source. The rule behind the calls is not given here.

What was measured:
HL-60 = experiment: Antiproliferative activity against human HL60 cells after 48 hrs by MTT assay; format: functional, cell-based; details: HL-60, 48 h
SK-BR-3 = experiment: Antiproliferative activity against human SK-BR-3 cells after 48 hrs by MTT assay; format: functional, cell-based; details: SK-BR-3, 48 h
HEL = experiment: Antiproliferative activity against human HEL cells after 48 hrs by MTT assay; format: functional, cell-based
Saccharomyces cerevisiae [1] = experiment: Induction of DNA damage in Saccharomyces cerevisiae FM888 harboring rad52 deletion mutant assessed as growth inhibition at 5 to 100 uM after 24 hrs; format: functional
Saccharomyces cerevisiae [2] = experiment: Induction of DNA damage in Saccharomyces cerevisiae FM588 expressing rad52 gene assessed as growth inhibition at 5 to 100 uM after 24 hrs; format: functional
[3] = target: DNA topoisomerase 2-alpha (Homo sapiens) (UniProt P11388); experiment: Inhibition of human topoisomerase-2 alpha assessed as reduction in relaxation of supercoiled pRYG DNA at 100 uM after 30 min by agarose gel electrophoresis
Chain of DNA topoisomerase 2-alpha (Homo sapiens) (P11388 whole entry): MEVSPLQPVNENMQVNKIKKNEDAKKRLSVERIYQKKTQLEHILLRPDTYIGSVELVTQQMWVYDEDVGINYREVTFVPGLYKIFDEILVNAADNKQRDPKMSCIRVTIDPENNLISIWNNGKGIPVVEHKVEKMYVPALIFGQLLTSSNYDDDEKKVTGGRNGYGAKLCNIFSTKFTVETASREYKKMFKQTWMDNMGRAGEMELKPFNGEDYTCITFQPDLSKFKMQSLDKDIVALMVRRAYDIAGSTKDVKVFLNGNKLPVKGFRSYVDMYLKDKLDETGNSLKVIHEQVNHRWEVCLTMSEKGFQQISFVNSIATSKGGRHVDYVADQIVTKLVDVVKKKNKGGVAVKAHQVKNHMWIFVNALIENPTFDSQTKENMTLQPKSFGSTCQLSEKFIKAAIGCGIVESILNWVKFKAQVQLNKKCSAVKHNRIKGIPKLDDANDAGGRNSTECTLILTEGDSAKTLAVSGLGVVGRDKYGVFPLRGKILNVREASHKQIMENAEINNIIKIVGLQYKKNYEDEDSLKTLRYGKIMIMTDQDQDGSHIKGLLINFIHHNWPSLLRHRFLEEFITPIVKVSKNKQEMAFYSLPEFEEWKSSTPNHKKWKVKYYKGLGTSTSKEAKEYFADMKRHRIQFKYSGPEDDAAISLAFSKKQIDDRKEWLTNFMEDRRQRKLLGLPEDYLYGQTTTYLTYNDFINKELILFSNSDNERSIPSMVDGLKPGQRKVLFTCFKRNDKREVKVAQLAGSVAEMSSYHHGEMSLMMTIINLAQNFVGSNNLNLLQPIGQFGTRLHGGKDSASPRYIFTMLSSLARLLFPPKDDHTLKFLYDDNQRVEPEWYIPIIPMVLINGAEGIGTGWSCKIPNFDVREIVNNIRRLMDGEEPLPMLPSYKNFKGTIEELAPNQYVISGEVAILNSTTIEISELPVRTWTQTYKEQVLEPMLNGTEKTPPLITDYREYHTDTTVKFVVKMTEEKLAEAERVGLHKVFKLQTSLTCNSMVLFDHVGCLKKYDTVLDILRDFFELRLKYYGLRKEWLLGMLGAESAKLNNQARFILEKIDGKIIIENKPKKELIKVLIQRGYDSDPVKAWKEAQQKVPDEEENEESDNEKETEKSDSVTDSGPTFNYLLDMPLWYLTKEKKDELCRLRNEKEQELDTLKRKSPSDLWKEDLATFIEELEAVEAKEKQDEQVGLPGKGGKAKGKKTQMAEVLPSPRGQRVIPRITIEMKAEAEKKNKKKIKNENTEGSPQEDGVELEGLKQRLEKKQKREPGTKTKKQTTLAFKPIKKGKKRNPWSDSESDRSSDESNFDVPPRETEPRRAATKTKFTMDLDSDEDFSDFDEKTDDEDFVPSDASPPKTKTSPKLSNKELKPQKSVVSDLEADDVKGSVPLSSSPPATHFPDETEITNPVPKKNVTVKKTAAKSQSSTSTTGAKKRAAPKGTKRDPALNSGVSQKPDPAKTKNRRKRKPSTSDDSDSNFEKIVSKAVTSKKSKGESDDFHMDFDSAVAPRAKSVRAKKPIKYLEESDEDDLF

[4] = target: DNA topoisomerase 2-alpha (Homo sapiens) (UniProt P11388); experiment: Poison activity at human topoisomerase-2 alpha assessed as increase in supercoiled pRYG DNA cleavage at 100 uM after 10 min

SMILES	IC50 (HL-60) [µM]	IC50 (SK-BR-3) [µM]	IC50 (HEL) [µM]	Activity (Saccharomyces cerevisiae [1])	Activity (Saccharomyces cerevisiae [2])	Topoisomerase 2-alpha inhibition (active/not active) [3]	Activity [4]
COc1cccc(C#Cc2cc3c4c(cccc4c2)C(=O)N(CCN(C)C)C3=O)c1	1	2	1	Active	Active		
CN(C)CCN1C(=O)c2cccc3cc(C#Cc4ccccc4)cc(c23)C1=O	4.6	4.6	1.4	Active	Active	Active	
CN(C)CCN1C(=O)c2cccc3cc(C#Cc4ccoc4)cc(c23)C1=O	3.5	9.6	5.6	Active	Active	Active	
COc1ccc(C#Cc2cc3c4c(cccc4c2)C(=O)N(CCN(C)C)C3=O)cc1	1.1	2.1	2	Active	Active		
CN(C)CCN1C(=O)c2cccc3cc(N)cc(c23)C1=O [AMONAFIDE]	3.4		4				
CN(C)CCN1C(=O)c2cccc3cc(C#Cc4ccsc4)cc(c23)C1=O	5.4	> 10	5	Active	Active	Active	Active
COc1cc([C@@H]2c3cc4c(cc3[C@@H](O[C@@H]3O[C@@H]5CO[C@@H](C)O[C@H]5[C@H](O)[C@H]3O)[C@H]3COC(=O)[C@H]23)OCO4)cc(OC)c1O							Active
CN(C)CCN1C(=O)c2cccc3cc(C#Cc4ccc(O)cc4)cc(c23)C1=O	5.7	2.1	13.1	inactive	inactive		
CN(C)CCN1C(=O)c2cccc3cc(C#Cc4cccc([N+](=O)[O-])c4)cc(c23)C1=O	13.6	> 10	21.7	Active	Active		
C#Cc1cc2c3c(cccc3c1)C(=O)N(CCN(C)C)C2=O	10	> 10	8.1	Active	Active		
CN(C)CCN1C(=O)c2cccc3cc(C#Cc4cccc(O)c4)cc(c23)C1=O	10.2	> 30	1.2	Active	Active		
CN(C)CCN1C(=O)c2cccc3cc(C#Cc4cccc(C(F)(F)F)c4)cc(c23)C1=O	2.3	0.1	2.2	Active	Active	inactive	
